# In the NIST ThermoML archive (doi:10.1021/je800579j):
# ± gives the expanded uncertainty stated by the source.
# Experiments:
# [1] = Liquid, Pycnometric method
# [2] = refractive index (Na D-line) (dimensionless); settings: Liquid, Standard Abbe refractometry
# [3] = xn = mol fraction of the nth substance listed; settings: Liquid, Pycnometric method
# [4] = refractive index (Na D-line) (dimensionless); xn = mol fraction of the nth substance listed; settings: Liquid, Standard Abbe refractometry
Compound,mass density ([1]; 288.15 K),mass density ([1]; 293.15 K),mass density ([1]; 298.15 K),mass density ([1]; 303.15 K),mass density ([1]; 308.15 K),mass density ([1]; 313.15 K),mass density ([1]; 318.15 K),refractive index ([2]; 288.15 K),refractive index ([2]; 293.15 K),refractive index ([2]; 298.15 K),refractive index ([2]; 303.15 K),refractive index ([2]; 308.15 K),refractive index ([2]; 313.15 K),refractive index ([2]; 318.15 K),"mass density ([3]; 288.15 K, x1 = 1)","mass density ([3]; 293.15 K, x1 = 1)","mass density ([3]; 298.15 K, x1 = 1)","mass density ([3]; 303.15 K, x1 = 1)","mass density ([3]; 308.15 K, x1 = 1)","mass density ([3]; 313.15 K, x1 = 1)",also measured
"Cc1ccccc1C [1,2-dimethylbenzene]",884.09 ± 0.67 kg/m3,879.83 ± 0.66 kg/m3,875.57 ± 0.67 kg/m3,871.31 ± 0.67 kg/m3,867.05 ± 0.68 kg/m3,862.79 ± 0.68 kg/m3,858.53 ± 0.69 kg/m3,1.5083 ± 0.0007,1.5055 ± 0.0007,1.5029 ± 0.0007,1.5002 ± 0.0007,1.4975 ± 0.0007,1.4948 ± 0.0007,1.4921 ± 0.0007,,,,,,,
"Cc1cc(C)cc(C)c1 [1,3,5-trimethylbenzene]",869.28 ± 0.63 kg/m3,865.37 ± 0.63 kg/m3,861.45 ± 0.63 kg/m3,857.54 ± 0.64 kg/m3,853.63 ± 0.65 kg/m3,849.71 ± 0.65 kg/m3,845.8 ± 0.66 kg/m3,1.502 ± 0.0007,1.4995 ± 0.0007,1.4969 ± 0.0007,1.4944 ± 0.0007,1.4918 ± 0.0007,1.4893 ± 0.0007,1.4868 ± 0.0007,,,,,,,
"Cc1cccc(C)c1 [1,3-dimethylbenzene]",868.59 ± 0.67 kg/m3,864.31 ± 0.66 kg/m3,860.02 ± 0.67 kg/m3,855.74 ± 0.67 kg/m3,851.45 ± 0.68 kg/m3,847.17 ± 0.68 kg/m3,842.88 ± 0.69 kg/m3,1.4999 ± 0.0006,1.4974 ± 0.0007,1.4948 ± 0.0007,1.4922 ± 0.0007,1.4896 ± 0.0007,1.487 ± 0.0007,1.4844 ± 0.0007,,,,,,,
"Cc1ccc(C)cc1 [1,4-dimethylbenzene]",865.52 ± 0.67 kg/m3,861.17 ± 0.67 kg/m3,856.82 ± 0.67 kg/m3,852.47 ± 0.68 kg/m3,848.12 ± 0.68 kg/m3,843.77 ± 0.69 kg/m3,839.42 ± 0.7 kg/m3,1.4985 ± 0.0007,1.4959 ± 0.0007,1.4933 ± 0.0007,1.4907 ± 0.0007,1.4881 ± 0.0007,1.4855 ± 0.0007,1.483 ± 0.0006,,,,,,,
"C1COCCO1 [1,4-dioxane]",1039.23 ± 0.87 kg/m3,1033.59 ± 0.87 kg/m3,1027.95 ± 0.87 kg/m3,1022.32 ± 0.88 kg/m3,1016.68 ± 0.88 kg/m3,1011.05 ± 0.89 kg/m3,1005.42 ± 0.89 kg/m3,1.4245 ± 0.0006,1.4224 ± 0.0006,1.4203 ± 0.0006,1.4182 ± 0.0006,1.4161 ± 0.0006,1.4139 ± 0.0006,1.4117 ± 0.0006,,,,,,,
"C1COCCO1 [1,4-dioxane] + Cc1cc(C)cc(C)c1",,,,,,,,,,,,,,,1039.23 ± 0.87 kg/m3,1033.59 ± 0.87 kg/m3,1027.95 ± 0.87 kg/m3,1022.32 ± 0.88 kg/m3,1016.68 ± 0.88 kg/m3,1011.05 ± 0.89 kg/m3,"mass density ([3]; 318.15 K, x1 = 1): 1005.42 ± 0.89 kg/m3; refractive index ([4]; 288.15 K, x1 = 1): 1.4245 ± 0.0006; refractive index ([4]; 293.15 K, x1 = 1): 1.4224 ± 0.0006; refractive index ([4]; 298.15 K, x1 = 1): 1.4203 ± 0.0006; refractive index ([4]; 303.15 K, x1 = 1): 1.4182 ± 0.0006; refractive index ([4]; 308.15 K, x1 = 1): 1.4161 ± 0.0006; refractive index ([4]; 313.15 K, x1 = 1): 1.4139 ± 0.0006; refractive index ([4]; 318.15 K, x1 = 1): 1.4117 ± 0.0006"
"C1COCCO1 [1,4-dioxane] + Cc1ccc(C)cc1",,,,,,,,,,,,,,,1039.23 ± 0.87 kg/m3,1033.59 ± 0.87 kg/m3,1027.95 ± 0.87 kg/m3,1022.32 ± 0.88 kg/m3,1016.68 ± 0.88 kg/m3,1011.05 ± 0.89 kg/m3,"mass density ([3]; 318.15 K, x1 = 1): 1005.42 ± 0.89 kg/m3; refractive index ([4]; 288.15 K, x1 = 1): 1.4245 ± 0.0006; refractive index ([4]; 293.15 K, x1 = 1): 1.4224 ± 0.0006; refractive index ([4]; 298.15 K, x1 = 1): 1.4203 ± 0.0006; refractive index ([4]; 303.15 K, x1 = 1): 1.4182 ± 0.0006; refractive index ([4]; 308.15 K, x1 = 1): 1.4161 ± 0.0006; refractive index ([4]; 313.15 K, x1 = 1): 1.4139 ± 0.0006; refractive index ([4]; 318.15 K, x1 = 1): 1.4117 ± 0.0006"
"C1COCCO1 [1,4-dioxane] + Cc1cccc(C)c1",,,,,,,,,,,,,,,1039.23 ± 0.87 kg/m3,1033.59 ± 0.87 kg/m3,1027.95 ± 0.87 kg/m3,1022.32 ± 0.88 kg/m3,1016.68 ± 0.88 kg/m3,1011.05 ± 0.89 kg/m3,"mass density ([3]; 318.15 K, x1 = 1): 1005.42 ± 0.89 kg/m3; refractive index ([4]; 288.15 K, x1 = 1): 1.4245 ± 0.0006; refractive index ([4]; 293.15 K, x1 = 1): 1.4224 ± 0.0006; refractive index ([4]; 298.15 K, x1 = 1): 1.4203 ± 0.0006; refractive index ([4]; 303.15 K, x1 = 1): 1.4182 ± 0.0006; refractive index ([4]; 308.15 K, x1 = 1): 1.4161 ± 0.0006; refractive index ([4]; 313.15 K, x1 = 1): 1.4139 ± 0.0006; refractive index ([4]; 318.15 K, x1 = 1): 1.4117 ± 0.0006"
"C1COCCO1 [1,4-dioxane] + Cc1ccccc1C",,,,,,,,,,,,,,,1039.23 ± 0.87 kg/m3,1033.59 ± 0.87 kg/m3,1027.95 ± 0.87 kg/m3,1022.32 ± 0.88 kg/m3,1016.68 ± 0.88 kg/m3,1011.05 ± 0.89 kg/m3,"mass density ([3]; 318.15 K, x1 = 1): 1005.42 ± 0.89 kg/m3; refractive index ([4]; 288.15 K, x1 = 1): 1.4245 ± 0.0006; refractive index ([4]; 293.15 K, x1 = 1): 1.4224 ± 0.0006; refractive index ([4]; 298.15 K, x1 = 1): 1.4203 ± 0.0006; refractive index ([4]; 303.15 K, x1 = 1): 1.4182 ± 0.0006; refractive index ([4]; 308.15 K, x1 = 1): 1.4161 ± 0.0006; refractive index ([4]; 313.15 K, x1 = 1): 1.4139 ± 0.0006; refractive index ([4]; 318.15 K, x1 = 1): 1.4117 ± 0.0006"
c1ccccc1 [benzene],884.3 ± 0.81 kg/m3,878.95 ± 0.8 kg/m3,873.61 ± 0.8 kg/m3,868.26 ± 0.81 kg/m3,862.9 ± 0.81 kg/m3,857.56 ± 0.82 kg/m3,852.23 ± 0.82 kg/m3,1.5042 ± 0.0007,1.5011 ± 0.0007,1.498 ± 0.0007,1.4949 ± 0.0007,1.4918 ± 0.0007,1.4887 ± 0.0007,1.4856 ± 0.0007,,,,,,,
c1ccccc1 [benzene] + C1COCCO1,,,,,,,,,,,,,,,,,,,,,"mass density ([3]; 288.15 K, x2 = 0): 884.3 ± 0.81 kg/m3; mass density ([3]; 293.15 K, x2 = 0): 878.95 ± 0.8 kg/m3; mass density ([3]; 298.15 K, x2 = 0): 873.61 ± 0.8 kg/m3; mass density ([3]; 303.15 K, x2 = 0): 868.26 ± 0.81 kg/m3; mass density ([3]; 308.15 K, x2 = 0): 862.9 ± 0.81 kg/m3; mass density ([3]; 313.15 K, x2 = 0): 857.56 ± 0.82 kg/m3; mass density ([3]; 318.15 K, x2 = 0): 852.23 ± 0.82 kg/m3; refractive index ([4]; 288.15 K, x2 = 0): 1.5042 ± 0.0007; refractive index ([4]; 293.15 K, x2 = 0): 1.5011 ± 0.0007; refractive index ([4]; 298.15 K, x2 = 0): 1.498 ± 0.0007; refractive index ([4]; 303.15 K, x2 = 0): 1.4949 ± 0.0007; refractive index ([4]; 308.15 K, x2 = 0): 1.4918 ± 0.0007; refractive index ([4]; 313.15 K, x2 = 0): 1.4887 ± 0.0007; refractive index ([4]; 318.15 K, x2 = 0): 1.4856 ± 0.0007"
Cc1ccccc1 [toluene],871.79 ± 0.72 kg/m3,867.08 ± 0.71 kg/m3,862.36 ± 0.72 kg/m3,857.64 ± 0.72 kg/m3,852.93 ± 0.73 kg/m3,848.21 ± 0.73 kg/m3,843.49 ± 0.74 kg/m3,1.4998 ± 0.0007,1.497 ± 0.0007,1.4942 ± 0.0007,1.4913 ± 0.0007,1.4884 ± 0.0007,1.4855 ± 0.0007,1.4826 ± 0.0007,,,,,,,
Cc1ccccc1 [toluene] + C1COCCO1,,,,,,,,,,,,,,,,,,,,,"mass density ([3]; 288.15 K, x2 = 0): 871.79 ± 0.72 kg/m3; mass density ([3]; 293.15 K, x2 = 0): 867.08 ± 0.71 kg/m3; mass density ([3]; 298.15 K, x2 = 0): 862.36 ± 0.72 kg/m3; mass density ([3]; 303.15 K, x2 = 0): 857.64 ± 0.72 kg/m3; mass density ([3]; 308.15 K, x2 = 0): 852.93 ± 0.73 kg/m3; mass density ([3]; 313.15 K, x2 = 0): 848.21 ± 0.73 kg/m3; mass density ([3]; 318.15 K, x2 = 0): 843.49 ± 0.74 kg/m3; refractive index ([4]; 288.15 K, x2 = 0): 1.4998 ± 0.0007; refractive index ([4]; 293.15 K, x2 = 0): 1.497 ± 0.0007; refractive index ([4]; 298.15 K, x2 = 0): 1.4942 ± 0.0007; refractive index ([4]; 303.15 K, x2 = 0): 1.4913 ± 0.0007; refractive index ([4]; 308.15 K, x2 = 0): 1.4884 ± 0.0007; refractive index ([4]; 313.15 K, x2 = 0): 1.4855 ± 0.0007; refractive index ([4]; 318.15 K, x2 = 0): 1.4826 ± 0.0007"
